One assay is filed under the species Mus musculus. Briefly: cells.
Conditions: not given; call rule not given here
The format is functional, organism-based, ddY.
Turning to `COC(=O)/C=C/c1ccc(O)c(O)c1` [METHYLCAFFEATE], the IC50 (commonly the concentration that inhibits the measured activity by half) is given as “Not Active”.
As to `O=C(O)/C=C\c1ccc(O)c(O)c1O`, the IC50 entry is recorded as “Not Active”.
Still for that read-out and setting: in the case of `O=C(CCc1ccc(O)c(O)c1)O[C@H](Cc1ccc(O)c(O)c1)C(=O)O` it was “Not Active”; in that of `O=C(O)/C=C\c1cc(O)c(O)c(O)c1`, “Not Active”.
On the same count and under the same terms, in the case of `COC(=O)[C@@H](Cc1ccc(O)c(O)c1)OC(=O)C=Cc1ccc(O)c(O)c1` (mixture of isomers) [ROSMARINIC ACID METHYL ESTER] it was “Not Active”; in that of `COc1cc(CC(O)C(=O)O)ccc1O` (stereo unspecified), “Not Active”; in that of `O=C(O)CCc1ccc(O)c(O)c1` [DIHYDROCAFFEIC ACID], “Not Active”.
On the same count and under the same terms, with `COC(=O)/C=C/c1ccccc1` [E-METHYL CINNAMATE] the entry was “Not Active”; with `OC/C=C/c1ccccc1` [CINNAMIC ALCOHOL], “Not Active”.
For `O=C(O)/C=C\c1cc(O)c(O)cc1O`, the IC50 result is “Not Active”.
With `O=C/C=C/c1ccccc1` [CINNAMALDEHYDE], the IC50 result was “Not Active”.

Staying with this assay, now noted: Mus musculus, ddY; read-out: IC50.
For the compound `O=C(O)/C=C/c1ccc(O)c(O)c1` [CAFFEIC ACID], the IC50 stood at 190 nM.
The same measure, in the same setting: in the case of `O=C(O)/C=C/c1cccc(O)c1` it was 180 nM; in that of `O=C(O)/C=C/C=C/c1ccccc1` [JUAREZIC ACID], 220 nM; in that of `O=C(/C=C/c1ccc(O)c(O)c1)O[C@H](Cc1ccc(O)c(O)c1)C(=O)O` [ROSMARINIC ACID], 150 nM.
The same measure, in the same setting: with `O=C(O)/C=C/c1ccccc1` [CINNAMIC ACID] the figure was 180 nM; with `O=C(O)/C=C/c1ccc(O)cc1` [COUMARIC ACID], 190 nM.
On the same count and under the same terms, in the case of `COc1ccc(/C=C/C(=O)O)cc1OC` [O,O'-DIMETHYLCAFFEIC ACID] it was 240 nM; in that of `COc1cc(/C=C/C(=O)O)ccc1O` [FERULATE], 200 nM.
Take `C/C=C/C(=O)O` [CROTONIC ACID]: the IC50 stood at 220 nM.
As to `C/C=C/C=C/C(=O)O` [SORBIC ACID], the IC50 is 210 nM.
Still for that read-out and setting: with `O=C(O)/C=C/c1ccc(O)cc1O` the figure was 210 nM; with `O=C(/C=C/c1ccc(O)c(O)c1)O[C@@H]1C[C@](O)(C(=O)O)C[C@@H](O)[C@H]1O` [CHLOROGENIC ACID], 200 nM; with `O=C(C=Cc1ccc(O)c(O)c1)O[C@H](Cc1ccc(O)c(O)c1)C(=O)O` (mixture of isomers) [(E/Z)-ROSMARINIC ACID], 600 nM.
On the same count and under the same terms, in the case of `O=C(O)/C=C/c1ccccc1O` [O-COUMARIC ACID] it was 190 nM; in that of `O=C(O)/C=C/c1cc(O)c(O)c(O)c1`, 180 nM.

Values taken from ChEMBL document CHEMBL1764965, “Contribution of cinnamic acid analogues in rosmarinic acid to inhibition of snake venom induced hemorrhage” (Bioorg Med Chem, 2011).
